Read-outs that look alike come from different tables or passages of the source.

By solubility is commonly meant the concentration that dissolves in the medium under given conditions. One may read the IC50 as the midpoint of a concentration-inhibition curve.

The nature of series [1]: Aqueous solubility study. The format is physicochemical. The note with it: thermodynamic from solid. As to the method: The aqueous solubility of compound 9 and 9a were determined according to the following procedure. Solubility data was determined at ambient conditions by equilibrating the compound with water on a shaking bed for 24 hours, followed by centrifugation and separation of the saturated solutions. The pH value of each media was measured before centrifugation, and the saturated solutions were assayed by HPLC.

Series [2] is described as follows: Rat IV pharmacokinetic study. The format is in vivo, Sprague Dawley rats. The note with it: rat, single IV bolus 1 mg/kg of compound 9; LLOQ 2.5 ng/mL. As to the method:
(§1) Sample Analysis. […] Before extraction, plasma samples were diluted using blank plasma at an appropriate dilution factor, as necessary, depending on the dose level. […] After centrifugation, the supernatant extract (10 μL) was injected onto the LC/MS/MS system. The HPLC system included a Phenomenex Synergy Kinetix C8 column, 2.6 micron, 2.0 mm diameter×75 mm long eluted with a gradient mobile phase consisting of 0.1% formic acid in water or in acetonitrile.
(§2) The analytes were detected by MS/MS with Electrospray Ionization (ESI) in the mode of multiple reaction monitoring (MRM). […] The intra-day and inter-day assay accuracy was within 20% of the nominal values. The intra- and inter-day assay variability was ≦20%.
(§3) Pharmacokinetic Data Analysis.
(§4) Key pharmacokinetic parameters such as AUCall, AUCextra, Cmax, tmax, Cl, Vss and t1/2 were determined.
(§5) Statistical Data Analysis. Descriptive statistical data of pharmacokinetic parameters were calculated, including the mean, standard deviation (SD), using Watson LIMS version 7.4 SP3 or Microsoft Excel 2000.
Male Sprague Dawley rats (n=3) were administered a single nominal IV bolus dose of 1 mg/kg of compound 9 via a jugular vein cannula. […] Animals had free access to food and water before and after dosing. Blood samples (approximately 0.25 mL each) were collected via a carotid artery catheter prior to dosing and at 5 min, 10 min, 0.25, 0.5, 1, 2, 4, 8, 12, 24 hours post dose. Each blood sample was collected into a tube that was kept on wet ice and contained potassium EDTA as the anticoagulant. Plasma was separated and stored at approximately −70° C. until analysis.
Plasma concentration vs. time data were subjected to noncompartmental pharmacokinetic (PK) analysis.

Series [3] in a line: Monkey oral pharmacokinetic study. The format is in vivo, cynomolgus monkeys. The method, then:
as §1, §2, §3, §4, §5
Male or female cynomolgus monkeys (n=3 per dose group) were administered single nominal PO doses of 10, 40, 100, 300, 500, 750 and 1000 mg/kg of compound 9 by gavage. Compound 9 was formulated in 30% PEG400 and 10% TPGS in water or 5% TPGS, 5% PVP-K30 in 50 mM Citrate, pH 5. […]

Series [4] deals with human Nav1.8 (Homo sapiens (Human), UniProt Q9Y5Y9). The series can be described thus: E-VIPR optical membrane potential assay with electrical stimulation (NaV1.8 IC50 activity). The format is cell-based. The text has this:
Sodium channels are voltage-dependent proteins that can be activated by inducing membrane voltage changes by applying electric fields. The electrical stimulation instrument and methods of use are described in Ion Channel Assay Methods PCT/US01/21652, herein incorporated by reference and are referred to as E-VIPR. The instrument comprises a microtiter plate handler, an optical system for exciting the coumarin dye while simultaneously recording the coumarin and oxonol emissions, a waveform generator, a current- or voltage-controlled amplifier, and a device for inserting electrodes in well. Under integrated computer control, this instrument passes user-programmed electrical stimulus protocols to cells within the wells of the microtiter plate.
24 hours before the assay on E-VIPR, HEK cells expressing human Nav1.8 were seeded in 384-well poly-lysine coated plates at 15,000-20,000 cells per well. […] Cells were grown in vented cap flasks, in 90% humidity and 5% CO2.
1) Pre-spotted compounds (in neat DMSO) into compound plates. […] Final compound plate volume was 80 μL (80-fold intermediate dilution from 1 μL DMSO spot; 160-fold final dilution after transfer to cell plate).
2) Prepared Hexyl Dye Solution.
3) Prepared cell plates. On the day of the assay, medium was aspirated and cells were washed three times with 100 μL of Bath1 Solution, maintaining 25 μL residual volume in each well.
4) Dispensed 25 μL per well of Hexyl Dye Solution into cell plates. Incubated for 20-35 minutes at room temp or ambient conditions.
5) Dispensed 80 μL per well of Bath1 into compound plates. Acid Yellow-17 (1 mM) was added and Potassium Chloride was altered from 4.5 to 20 mM depending on the NaV subtype and assay sensitivity.
6) Washed cell plates three times with 100 μL per well of Bath1, leaving 25 μL of residual volume. […] Incubated for 20-35 minutes at room temp/ambient condition.
7) Read Plate on E-VIPR. […] A pre-stimulus recording was performed for 0.5 seconds to obtain the un-stimulated intensities baseline. The stimulatory waveform was followed by 0.5 seconds of post-stimulation recording to examine the relaxation to the resting state.
Data was analyzed and reported as normalized ratios of emission intensities measured in the 460 nm and 580 nm channels. The response as a function of time was reported as the ratios obtained using the following formula: […]
The data was further reduced by calculating the initial (Ri) and final (Rf) ratios. These were the average ratio values during part or all of the pre-stimulation period, and during sample points during the stimulation period. The response to the stimulus R=Rf/Ri was then calculated and reported as a function of time.
Control responses were obtained by performing assays in the presence of a compound with the desired properties (positive control), such as tetracaine, and in the absence of pharmacological agents (negative control). Responses to the negative (N) and positive (P) controls were calculated as above.

Series [5] in a line: Rat oral pharmacokinetic study. The format is in vivo, Sprague Dawley rats. The method, then:
as §1, §2, §3, §4, §5
Groups of male and female Sprague Dawley rats (n=3 per dose group) were administered single nominal oral doses of 10, 100, 400, 640, 1000 mg/kg (for males) and 30, 100, 300, 640, 1000 mg/kg (for females) of compound 9 by gavage. Compound 9 was formulated in either 30% PEG400 and 10% TPGS in water or 5% TPGS, 5% PVP-K30 in 50 mM Citrate, pH 5. Animals had free access to food and water before and after dosing. Blood samples (approximately 0.25 mL each) were collected via a carotid artery catheter prior to dosing and at 0.25, 0.5, 1, 2, 4, 8, 12, 24, 48 and 72 hours post dose. Each blood sample was collected into a tube that was kept on wet ice and contained potassium EDTA as the anticoagulant. Plasma was separated and stored at approximately −70° C. until analysis.

Series [6] is described as follows: Chemical and physical stability of crystalline Form B (XRPD, HPLC impurity profile, appearance). The format is physicochemical. From the text: Chemically and physically stable means no changes were observed on the X-ray powder diffraction and HPLC impurity profiles (e.g., less than 0.2% variance) and there were no observed changes in physical appearance of the samples.

Sequence of human Nav1.8 (Q9Y5Y9 whole entry): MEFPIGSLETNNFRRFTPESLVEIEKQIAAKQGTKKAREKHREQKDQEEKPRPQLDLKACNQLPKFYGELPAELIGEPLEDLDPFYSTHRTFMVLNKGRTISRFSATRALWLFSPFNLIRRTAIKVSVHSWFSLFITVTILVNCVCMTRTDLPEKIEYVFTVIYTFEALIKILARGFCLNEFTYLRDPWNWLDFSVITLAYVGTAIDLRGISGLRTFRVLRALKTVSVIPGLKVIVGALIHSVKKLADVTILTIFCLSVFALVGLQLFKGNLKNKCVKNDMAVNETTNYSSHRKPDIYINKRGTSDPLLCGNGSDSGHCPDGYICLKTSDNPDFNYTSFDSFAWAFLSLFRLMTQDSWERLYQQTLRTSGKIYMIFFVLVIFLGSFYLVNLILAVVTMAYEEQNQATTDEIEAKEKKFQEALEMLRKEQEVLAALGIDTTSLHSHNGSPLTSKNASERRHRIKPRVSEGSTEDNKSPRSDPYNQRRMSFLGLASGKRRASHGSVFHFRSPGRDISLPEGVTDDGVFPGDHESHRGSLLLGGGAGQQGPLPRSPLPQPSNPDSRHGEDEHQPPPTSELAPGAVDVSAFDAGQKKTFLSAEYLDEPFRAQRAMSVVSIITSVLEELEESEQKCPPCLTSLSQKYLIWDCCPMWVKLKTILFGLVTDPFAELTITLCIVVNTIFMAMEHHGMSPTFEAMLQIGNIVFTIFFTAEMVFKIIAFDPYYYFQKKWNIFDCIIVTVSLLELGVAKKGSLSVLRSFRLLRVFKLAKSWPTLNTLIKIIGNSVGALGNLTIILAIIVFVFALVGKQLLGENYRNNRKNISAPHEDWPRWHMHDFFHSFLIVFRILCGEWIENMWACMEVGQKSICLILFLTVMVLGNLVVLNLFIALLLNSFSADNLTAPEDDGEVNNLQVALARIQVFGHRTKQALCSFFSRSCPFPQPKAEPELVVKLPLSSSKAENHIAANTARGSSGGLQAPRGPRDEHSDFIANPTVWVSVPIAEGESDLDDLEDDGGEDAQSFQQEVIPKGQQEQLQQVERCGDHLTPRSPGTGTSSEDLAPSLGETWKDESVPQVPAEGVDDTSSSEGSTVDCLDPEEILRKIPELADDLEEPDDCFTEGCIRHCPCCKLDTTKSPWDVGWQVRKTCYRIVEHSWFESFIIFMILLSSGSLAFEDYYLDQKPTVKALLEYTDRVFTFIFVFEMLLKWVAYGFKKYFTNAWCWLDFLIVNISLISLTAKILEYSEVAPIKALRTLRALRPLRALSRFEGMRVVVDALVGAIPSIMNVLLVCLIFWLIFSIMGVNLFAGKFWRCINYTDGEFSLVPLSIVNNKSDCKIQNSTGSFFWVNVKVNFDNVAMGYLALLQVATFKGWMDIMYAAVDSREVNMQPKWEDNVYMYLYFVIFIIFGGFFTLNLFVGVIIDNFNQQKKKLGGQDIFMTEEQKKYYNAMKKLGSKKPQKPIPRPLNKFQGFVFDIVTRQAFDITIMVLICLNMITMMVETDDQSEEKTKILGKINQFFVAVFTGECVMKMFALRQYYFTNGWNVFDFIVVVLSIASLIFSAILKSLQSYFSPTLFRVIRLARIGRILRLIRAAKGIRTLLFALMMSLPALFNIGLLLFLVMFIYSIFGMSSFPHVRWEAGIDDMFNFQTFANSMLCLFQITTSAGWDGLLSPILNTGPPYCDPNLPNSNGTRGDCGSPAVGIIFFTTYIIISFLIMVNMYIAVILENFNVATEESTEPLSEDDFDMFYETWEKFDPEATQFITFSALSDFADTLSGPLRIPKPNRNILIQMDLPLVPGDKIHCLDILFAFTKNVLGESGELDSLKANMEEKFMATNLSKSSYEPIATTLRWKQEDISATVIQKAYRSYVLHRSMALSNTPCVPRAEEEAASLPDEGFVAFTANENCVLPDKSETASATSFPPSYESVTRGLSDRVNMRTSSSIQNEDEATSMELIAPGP

As to `Cc1cc(F)ccc1Oc1cc(C(F)(F)F)ccc1C(=O)Nc1ccn(COP(=O)(O)O)c(=O)c1` [Compound 9, (4-(2-(4-fluoro-2-methylphenoxy)-4-(trifluoromethyl)benzamido)-2-oxopyridin-1(2H)-yl)methyl dihydrogen phosphate], the solubility at 24 h in series [1] (aqueous medium, aqueous buffer, pH 3, crystalline, ambient conditions, 24 hours, read-out: Solubility) is 110 µg/mL; in series [1] (aqueous medium, aqueous buffer, pH 3.3, crystalline, ambient conditions, 24 hours, read-out: Solubility), 240 µg/mL; in series [1] (aqueous medium, aqueous buffer, pH 5, crystalline, ambient conditions, 24 hours, read-out: Solubility), 420 µg/mL; in series [1] (aqueous medium, aqueous buffer, pH 7, crystalline, ambient conditions, 24 hours, read-out: Solubility), 500 µg/mL; in series [1] (aqueous medium, aqueous buffer, pH 8, crystalline, ambient conditions, 24 hours, read-out: Solubility), 2240 µg/mL; in series [1] (aqueous medium, simulated gastric fluid, pH 1, crystalline, ambient conditions, 24 hours, read-out: Solubility), 2 µg/mL. For the same compound, the solubility at 24 h in series [1] (water, read-out: aqueous solubility in water) was around 300 µg/mL. Further, the “plasma concentrations of compound 9” value in series [2] was “below LLOQ for the majority of the samples”; in series [3] (monkey, single PO doses 10-1000 mg/kg of compound 9, LLOQ 10.0 to 25.0 ng/mL), “below LLOQ for the majority of the samples”; in series [5] (rat, single oral doses 10-1000 mg/kg of compound 9, LLOQ 2.5 to 25 ng/mL), “below LLOQ for the majority of the samples”. In addition, the “in vivo conversion of prodrug into parent compound” value in series [3] (monkeys) and in series [5] (rats) was “converted in vivo into compound 9a” each time. This compound showed an IC50 in series [4] of 330 nM.

Consider `Cc1cc(F)ccc1Oc1cc(C(F)(F)F)ccc1C(=O)Nc1ccn(COP(=O)(O)O)c(=O)c1` [crystalline Form B, (4-(2-(4-fluoro-2-methylphenoxy)-4-(trifluoromethyl)benzamido)-2-oxopyridin-1(2H)-yl)methyl dihydrogen phosphate], for which the “chemical and physical stability” value in series [6] (5° C./dry, 40° C./dry, 25° C. with relative humidity of up to 60%, 40° C. with relative humidity of up to 75%) was “chemically and physically stable for at least one month”; in series [6] (open dish at 40° C., 40° C. with RH up to 75%, 25° C. with RH up to 60%, closed dish at 5° C. with a desiccator), “chemically and physically stable for at least three months”.
